Read-outs that look alike come from different tables or passages of the source.
Biological target: T1, human CYP4Z1 (Homo sapiens, UniProt Q86W10)
T1 sequence (Q86W10 1-505): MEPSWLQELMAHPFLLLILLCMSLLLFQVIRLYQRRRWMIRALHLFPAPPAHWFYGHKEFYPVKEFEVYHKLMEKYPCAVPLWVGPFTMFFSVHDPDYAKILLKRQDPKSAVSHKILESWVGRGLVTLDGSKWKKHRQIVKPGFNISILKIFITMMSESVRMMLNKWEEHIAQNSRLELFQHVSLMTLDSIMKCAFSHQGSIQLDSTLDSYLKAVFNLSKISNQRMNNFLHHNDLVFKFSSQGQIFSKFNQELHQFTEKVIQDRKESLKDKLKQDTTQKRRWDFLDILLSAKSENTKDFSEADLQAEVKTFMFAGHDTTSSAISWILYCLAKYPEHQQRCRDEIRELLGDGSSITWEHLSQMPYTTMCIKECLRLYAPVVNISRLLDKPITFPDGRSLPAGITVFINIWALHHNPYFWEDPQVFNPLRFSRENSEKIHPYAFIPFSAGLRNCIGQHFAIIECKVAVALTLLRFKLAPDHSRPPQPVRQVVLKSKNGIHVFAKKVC
Assay: whole-cell biotransformation (substrate conversion) assay with fission yeast strains expressing CYP4Z1
Details: for metabolite formation / metabolism by human CYP4Z1: fission yeast strains AZ1 and AZ3, 1 mM substrate, 24 h at 30°C, HPLC (steroids, vitamin D, ebastine) or GC-MS (fatty acids)
Experimental: Possible substrates of human CYP4Z1 were tested by incubating the fission yeast strains AZ1 and AZ3 as well as the control strains NCYC2036 and CAD 62 with 1 mM substrate. […] Approximately 2*10^8 cells/mL were used per assay. Cells were grown in EMM medium containing 100 g/L glucose as well as the required supplements (leucine for AZ1 and CAD 62). Incubation was carried out either in 96 well microtiter plates or in 250 mL Erlenmeyer flasks with a cellulose stopper at a shaking velocity of 150 rpm for 24 h at 30°C.
Samples containing steroids as possible substrates were extracted with ethylacetate, evaporated and analyzed via HPLC (Alliance, Waters, USA) using a RP-18 column (Licrosphere 100, 5µM, Merck, Darmstadt) or a RP-8 column (Licrosphere 100, 5µM, Merck, Darmstadt). The column temperature was kept constant at 40°C. The mobile phase used for each sample is outlined in Suppl. Table. 1. When available, positive control reactions were carried out using strains expressing a P450 that is known to metabolize the respective substrate.
Fatty acid conversions were analyzed via GC-MS as previously described. Fatty acid extraction from S.pombe cells was performed using the Bligh and Dyer method.. Extracted samples were then evaporated to dryness, dissolved in a mixture of 500 µl methanol/toluene/sulphuric acid (50:50:2 V/V) and incubated at 55 °C overnight. 400µl of a 0.5 M […], 2 M KCl solution were added to the samples which were then centrifuged at RT, transferred to a GC vial and derivatised with 25 µl N-Methyl-N-(trimethylsilyl)trifluoroacetamide (37 °C for 1 hour). Fatty acid analysis was performed on an Agilent 6890N gas chromatograph coupled to an Agilent 5973N mass selective detector and equipped with a non-polar J&W DB-5HT capillary column, as described before.

SMILES	main hydroxylation position (MS fragmentation analysis)	other hydroxylated fatty acids detected besides the main product	main hydroxylation position (MS fragmentation analysis) (CYP4Z1 whole-cell biotransformation, GC-MS, main product)	other hydroxylated fatty acids detected besides the main product (CYP4Z1 whole-cell biotransformation, GC-MS, minor products)	metabolite formation / metabolism by human CYP4Z1
CCCCCCCCCCCC(=O)O [lauric acid]	predominantly ω-4-hydroxylated	ω-2-, ω-3-, ω-5-hydroxylated	–	–	–
CCCCCCCCCCCCCC(=O)O [myristic acid]	–	–	mainly hydroxylated at position ω-2	ω-3-, ω-4-, ω-5-hydroxlated	able to hydroxylate
C=C1CC[C@H](O)C/C1=C/C=C1\CCC[C@]2(C)[C@@H]([C@H](C)CCCC(C)C)CC[C@@H]12 [vitamin D3]	–	–	–	–	not metabolized
